Laboratory results reported in US12630528B2, “Amino aryl derivative useful as diacylglycerol acyltransferase 2 inhibitor and use thereof” (LG CHEM, LTD., priority 2019, dated 2026).

Molecular target: T1, human DGAT2 (Homo sapiens, UniProt Q96PD7)
T1 construct: FLAG (DYKDDDDK); made in house; host or cells: Sf-21 insect cells (BacPAK baculovirus system); membrane fraction used
T1 sequence (Q96PD7 1-388): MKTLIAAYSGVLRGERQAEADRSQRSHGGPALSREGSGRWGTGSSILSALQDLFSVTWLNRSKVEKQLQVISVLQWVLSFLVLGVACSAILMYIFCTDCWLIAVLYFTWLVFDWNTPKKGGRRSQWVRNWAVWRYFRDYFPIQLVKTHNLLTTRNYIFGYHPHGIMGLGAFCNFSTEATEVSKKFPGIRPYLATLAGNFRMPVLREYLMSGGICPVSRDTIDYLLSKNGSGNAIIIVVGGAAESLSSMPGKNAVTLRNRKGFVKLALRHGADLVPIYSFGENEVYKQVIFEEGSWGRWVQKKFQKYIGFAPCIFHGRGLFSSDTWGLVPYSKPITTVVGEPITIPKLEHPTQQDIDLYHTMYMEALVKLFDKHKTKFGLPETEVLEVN
Assay: DGAT2 enzyme activity inhibition, Phospholipid FlashPlate SPA
Assay type: biochemical
Details: recombinant human DGAT2 membrane protein from Sf-21 cells; inhibition of [14C]-TG production; 37° C.
How it was run: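 Sf-21 membranes expressing recombinant human DGAT2 (2 μg) preincubated with compound (3 nM–10 μM, 1% DMSO) and 50 μM 1,2 sn-oleoyl glycerol, 20 min at 37 °C, then 1 μM [14C]oleoyl-CoA for 15 min. [14C]-TG counted by SPA; inhibition as % of untreated.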

Structure (SMILES) | IC50 [nM]
CCOc1ccccc1O[C@@H]1CCCN(c2cncc(Nc3nc4cc(CC(C)(C)C(=O)O)ccc4o3)n2)C1 [Example 14, (R)-3-(2-((6-(3-(2-ethoxyphenoxy)piperidin-1-yl)pyrazin-2-yl)amino)benzo[d]oxazol-5-yl)-2,2-dimethylpropanoic Acid] | 3100
CCOc1ccccc1O[C@@H]1CCCN(c2cncc(Nc3nc(-c4ccccc4)cs3)n2)C1 [Example 4, (R)—N-(6-(3-(2-ethoxyphenoxy)piperidin-1-yl)pyrazin-2-yl)-4-phenylthiazol-2-amine] | > 10000
CCOc1ccccc1O[C@@H]1CCCN(c2cncc(Nc3ccc(C)c(-c4cccc(CC(C)(C)C(=O)O)c4)n3)n2)C1 [Example 111, (R)-3-(3-(6-((6-(3-(2-ethoxyphenoxy)piperidin-1-yl)pyrazin-2-yl)amino)-3-methylpyridin-2-yl)phenyl)-2,2-dimethylpropanoic Acid] | 2200
CCOc1ccccc1O[C@@H]1CCCN(c2cncc(Nc3cc(-c4cccc(C(C)(C)C(=O)O)c4)ccn3)n2)C1 [Example 42, (R)-2-(3-(2-((6-(3-(2-ethoxyphenoxy)piperidin-1-yl)pyrazin-2-yl)amino)pyridin-4-yl)phenyl)-2-methylpropanoic Acid] | 3700
CCOc1ccccc1O[C@@H]1CCCN(c2cncc(Nc3nc4cc(C(C)(C)C(=O)O)ccc4o3)n2)C1 [Example 13, (R)-2-(2-((6-(3-(2-ethoxyphenoxy)piperidin-1-yl)pyrazin-2-yl)amino)benzo[d]oxazol-5-yl)-2-methylpropanoic Acid] | 960
CCOc1ccccc1O[C@@H]1CCCN(c2cncc(Nc3nc4ccc(CCC(=O)O)cc4o3)n2)C1 [Example 18, (R)-3-(2-((6-(3-(2-ethoxyphenoxy)piperidin-1-yl)pyrazin-2-yl)amino)benzo[d]oxazol-6-yl)propanoic Acid] | 1100
CCOc1ccccc1O[C@@H]1CCCN(c2cncc(Nc3cccc(C(C)(C)C(=O)O)n3)n2)C1 [Example 50, (R)-2-(6-((6-(3-(2-ethoxyphenoxy)piperidin-1-yl)pyrazin-2-yl)amino)pyridin-2-yl)-2-methylpropanoic Acid] | 7200
CCOc1ccccc1O[C@@H]1CCCN(c2cncc(Nc3nccc(N4CCC[C@@H](OC(C)(C)C(=O)O)C4)n3)n2)C1 [Example 133, 2-(((R)-1-(2-((6-((R)-3-(2-ethoxyphenoxy)piperidin-1-yl)pyrazin-2-yl)amino)pyrimidin-4-yl)piperidin-3-yl)oxy)-2-methylpropanoic Acid] | 3600
CCOc1ccccc1O[C@@H]1CCCN(c2cncc(Nc3nc4cc(/C=C/C(=O)O)ccc4o3)n2)C1 [Example 15, (R,E)-3-(2-((6-(3-(2-ethoxyphenoxy)piperidin-1-yl)pyrazin-2-yl)amino)benzo[d]oxazol-5-yl)acrylic Acid] | 7300
CCOc1ccccc1O[C@@H]1CCCN(c2cncc(Nc3ccc(CC(=O)NCc4ccncc4)cc3)n2)C1 [Example 26, (R)-2-(4-((6-(3-(2-ethoxyphenoxy)piperidin-1-yl)pyrazin-2-yl)amino)phenyl)-N-(pyridin-4-ylmethyl)acetamide] | 6700
CCOc1ccccc1O[C@@H]1CCCN(c2cncc(Nc3ccc(C(C)(C)C(=O)O)cn3)n2)C1 [Example 49] | > 10000
CCOc1ccccc1O[C@@H]1CCCN(c2ccnc(Nc3cccc(-c4cccc(CC(C)(C)C(=O)O)c4)n3)n2)C1 [Example 67, (R)-3-(3-(6-((4-(3-(2-ethoxyphenoxy)piperidin-1-yl)pyrimidin-2-yl)amino)pyridin-2-yl)phenyl)-2,2-dimethylpropanoic Acid] | 2400

These reach a lower IC50. Values come first.

IC50 [nM] | Structure (SMILES)
890 | CCOc1ccccc1O[C@@H]1CCCN(c2cncc(Nc3nccc(N4CCCC(C(=O)O)C4)n3)n2)C1 (stereo partly drawn) [Example 120, 1-(2-((6-((R)-3-(2-ethoxyphenoxy)piperidin-1-yl)pyrazin-2-yl)amino)pyrimidin-4-yl)piperidine-3-carboxylic Acid]
800 | CCOc1ccccc1O[C@@H]1CCCN(c2cncc(Nc3nccc(N4CCC[C@@H](/C=C/C(=O)O)C4)n3)n2)C1 [Example 129, (E)-3-((S)-1-(2-((6-((R)-3-(2-ethoxyphenoxy)piperidin-1-yl)pyrazin-2-yl)amino)pyrimidin-4-yl)piperidin-3-yl)acrylic Acid]
800 | CCOc1ccccc1O[C@@H]1CCCN(c2cncc(Nc3nccc(N4CCC(C(C)(C)C(=O)O)CC4)n3)n2)C1 [Example 126, (R)-2-(1-(2-((6-(3-(2-ethoxyphenoxy)piperidin-1-yl)pyrazin-2-yl)amino)pyrimidin-4-yl)piperidin-4-yl)-2-methylpropanoic Acid]
720 | CCOc1cccnc1O[C@@H]1CCCN(c2ccnc(Nc3nccc(-c4ccc(CC(C)(C)C(=O)O)cc4)n3)n2)C1 [Example 157, (R)-3-(4-(2-((4-(3-((3-ethoxypyridin-2-yl)oxy)piperidin-1-yl)pyrimidin-2-yl)amino)pyrimidin-4-yl)phenyl)-2,2-dimethylpropanoic Acid]
600 | CCOc1ccccc1O[C@@H]1CCCN(c2cncc(Nc3cc(-c4ccccc4)ccn3)n2)C1 [Example 41, (R)-6-(3-(2-ethoxyphenoxy)piperidin-1-yl)-N-(4-phenylpyridin-2-yl)pyrazin-2-amine]
560 | CCOc1cccnc1O[C@@H]1CCCN(c2cncc(Nc3nccc(-c4cccc(OC(C)(C)C(=O)O)c4)n3)n2)C1 [Example 159, (R)-2-(3-(2-((6-(3-((3-ethoxypyridin-2-yl)oxy)piperidin-1-yl)pyrazin-2-yl)amino)pyrimidin-4-yl)phenoxy)-2-methylpropanoic Acid]
380 | CCOc1cccnc1O[C@@H]1CCCN(c2cncc(Nc3nccc(-c4cccc(C(C)(C)C(=O)O)c4)n3)n2)C1 [Example 142, (R)-2-(3-(2-((6-(3-((3-ethoxypyridin-2-yl)oxy)piperidin-1-yl)pyrazin-2-yl)amino)pyrimidin-4-yl)phenyl)-2-methylpropanoic Acid]
230 | CCOc1ccccc1O[C@@H]1CCCN(c2cncc(Nc3nccc(Oc4ccc(CC(=O)O)cc4)n3)n2)C1 [Example 162, (R)-2-(4-((2-((6-(3-(2-ethoxyphenoxy)piperidin-1-yl)pyrazin-2-yl)amino)pyrimidin-4-yl)oxy)phenyl)acetic Acid]
170 | CCOc1cccnc1O[C@@H]1CCCN(c2cncc(Nc3cccc(-c4ccc(C(C)(C)C(=O)O)cc4)n3)n2)C1 [Example 62, (R)-2-(4-(6-((6-(3-((3-ethoxypyridin-2-yl)oxy)piperidin-1-yl)pyrazin-2-yl)amino)pyridin-2-yl)phenyl)-2-methylpropanoic Acid]
160 | CCOc1ccccc1O[C@@H]1CCCN(c2cncc(Nc3nccc(N4CCC[C@@H](CC(=O)O)C4)n3)n2)C1 [Example 128, 2-((S)-1-(2-((6-((R)-3-(2-ethoxyphenoxy)piperidin-1-yl)pyrazin-2-yl)amino)pyrimidin-4-yl)piperidin-3-yl)acetic Acid]
130 | CCOc1ccccc1O[C@@H]1CCCN(c2cncc(Nc3nccc(-c4ccc(OC(C)(C)C(=O)O)cc4)n3)n2)C1 [Example 160, (R)-2-(4-(2-((6-(3-(2-ethoxyphenoxy)piperidin-1-yl)pyrazin-2-yl)amino)pyrimidin-4-yl)phenoxy)-2-methylpropanoic Acid]
130 | CCOc1cccnc1O[C@@H]1CCCN(c2cncc(Nc3cccc(-c4cccc(CC(C)(C)C(=O)O)c4)n3)n2)C1 [Example 64, (R)-3-(3-(6-((6-(3-((3-ethoxypyridin-2-yl)oxy)piperidin-1-yl)pyrazin-2-yl)amino)pyridin-2-yl)phenyl)-2,2-dimethylpropanoic Acid]
